According to patent publication US6670363B1, “Azole compounds as therapeutic agents for fungal infections” (Ranbaxy Laboratories Limited, priority 2000, dated 2003):
Converted amounts (≈) assume the structure as drawn.

How the values were obtained:
Format in all cases: cell-based
[1] = system: Candida; experiment: In vitro MIC, NCCLS M27A, Candida species; parameters: MIC, Candida albicans 1.549 / MIC, Candida albicans Y-01-19 / MIC, C. krusei 766-1 / MIC, C. krusei Q. C / MIC, Candida tropicalis ATCC / MIC, C. glabrata 90030: unit not given beside the values; MIC, Candida albicans A 26 / MIC, C. parapsilosis Q. C.: unit not given here; settings: for MIC, C. glabrata 90030: C. glabrata strain 90030; for MIC, C. krusei 766-1: C. krusei strain 766-1; for MIC, C. krusei Q. C: C. krusei strain Q. C; for MIC, C. parapsilosis Q. C.: C. parapsilosis strain Q. C.; for MIC, Candida albicans 1.549: Candida albicans strain 1.549; for MIC, Candida albicans A 26: Candida albicans strain A 26; for MIC, Candida albicans Y-01-19: Candida albicans strain Y-01-19
[2] = system: Histoplasma capsulatum
[3] = system: Cryptococcus neoformans; experiment: In vitro MIC, NCCLS M27A, Cryptococcus neoformans; parameters: MIC, C. neoformans I: unit not given beside the values; MIC, C. neoformans M 106: unit not given here; settings: for MIC, C. neoformans I: C. neoformans strain I; for MIC, C. neoformans M 106: C. neoformans strain M 106
[4] = system: A. fumigatus s 1008; experiment: In vitro MIC, NCCLS M38P broth method (RPMI 1640/MOPS pH7), Aspergillus fumigatus; settings: A. fumigatus strain 1008

| Compound | MIC, C. glabrata 90030 [1] | MIC, C. krusei 766-1 [1] | MIC, C. krusei Q. C [1] | MIC, C. parapsilosis Q. C. [1] | MIC, Candida albicans 1.549 [1] | MIC, Candida albicans A 26 [1] | MIC, Candida albicans Y-01-19 [1] | MIC, Candida tropicalis ATCC [1] | MIC, H. capsulatum [2] [µg/mL] | MIC, C. neoformans I [3] | MIC, C. neoformans M 106 [3] | MIC, A. fumigatus 1008 [4] |
| --- | --- | --- | --- | --- | --- | --- | --- | --- | --- | --- | --- | --- |
| Cc1ccc(N2CCN(c3ccc(-n4cnn([C@H](C)[C@](O)(Cn5cncn5)c5ccc(F)cc5F)c4=O)cc3)CC2)cc1C [Compound 23, 2-{[1R2R/1S2S]-2-(2,4-Difluorophenyl)-2-hydroxy-1-methyl-3-(1H-1,2,4-triazol-1-yl)propyl}-4-{4-[4-(3,4-dimethylphenyl)-1-piperazinyl]phenyl}-3-(2H,4H)-1,2,4-triazolone] | 0.50 | 0.50 | 0.25 | <0.03 | 0.25 | <0.03 | 0.50 | <0.03 | 0.06 (≈ 0.0999 µM) | <0.03 | <0.03 | 1.00 |
| C[C@@H](n1ncn(-c2ccc(N3CCN(c4ccc([N+](=O)[O-])cc4[N+](=O)[O-])CC3)cc2)c1=O)[C@@](O)(Cn1cncn1)c1ccc(F)cc1F [Compound 4, 2-{[1R2S/1S2R]-2-(2,4-Difluorophenyl)-2-hydroxy-1-methyl-3-(1H-1,2,4-triazol-1-yl)propyl}-4-{4-[4-(2,4-dinitrophenyl)-1-piperazinyl]phenyl}-3-(2H,4H)-1,2,4-triazolone] | 2.00 | >16 | >16 | 0.25 | 4.00 | <0.03 | >16 | <0.03 | 0.5 (≈ 0.755 µM) | 0.25 | 1.00 | >16 |
| C[C@@H](n1ncn(-c2ccc(N3CCN(c4ccc(Cl)c(Cl)c4)CC3)cc2)c1=O)[C@@](O)(Cn1cncn1)c1ccc(F)cc1F [Compound 8, 2-{[1R2S/1S2R]-2-(2,4-Difluorophenyl)-2-hydroxy-1-methyl-3-(1H-1,2,4-triazol-1-yl)propyl}-4-{4-[4-(3,4-dichlorophenyl)-1-piperazinyl]phenyl}-3-(2H,4H)-1,2,4-triazolone] | >16 | >16 | >16 | 1.00 | >16 | <0.03 | >16 | >16 | 2 (≈ 3.12 µM) | 16.00 | 16.00 | >16 |
| Cc1nn([C@H](C)[C@@](O)(Cn2cncn2)c2ccc(F)cc2F)c(=O)n1-c1ccc(N2CCN(c3cc(Cl)cc(Cl)c3)CC2)cc1 [Compound 30, 2-{[1R2S/1S2R]-2-(2,4-Difluorophenyl)-2-hydroxy-1-methyl-3-(1H-1,2,4-triazol-1-yl)propyl}-4-{4-[4-(3,5-dichlorophenyl)-1-piperazinyl]phenyl}-3-(2H,4H)-5-methyl-1,2,4-triazolone] | 1.00 | 8.00 | 1.00 | 0.12 | 0.50 | <0.03 | 1.00 | <0.03 | 0.5 (≈ 0.763 µM) | 0.12 | 0.25 | >16 |
| C[C@@H](n1ncn(-c2ccc(N3CCN(c4cccc(C(F)(F)F)c4)CC3)cc2)c1=O)[C@](O)(Cn1cncn1)c1ccc(F)cc1F [Compound 9, 2-{[1R2R/1S2S]-2-(2,4-Difluorophenyl)-2-hydroxy-1-methyl-3-(1H-1,2,4-triazol-1-yl)propyl}-4-{4-[4-(3-trifluoromethylphenyl)-1-piperazinyl]phenyl}-3-(2H,4H)-1,2,4-triazolone] | 0.25 | 0.50 | 0.12 | <0.03 | 0.25 | <0.03 | 0.25 | <0.03 | 0.06 (≈ 0.0937 µM) | <0.03 | <0.03 | 0.50 |
| Cc1nn(CC(O)(Cn2cncn2)c2ccc(F)cc2F)c(=O)n1-c1ccc(N2CCN(c3ccc(F)cc3)CC2)cc1 (stereo not drawn) [Compound 36, 2-[2-(2,4-Difluorophenyl)-2-hydroxy-3-(1H-1,2,4-triazol-1-yl)propyl]-4-{4-[4-(4-fluorophenyl)-1-piperazinyl]phenyl}-3-(2H,4H)-5-methyl-1,2,4-triazolone] | 3.12 | 3.12 | 1.56 | <0.02 | 0.20 | <0.02 | 0.40 | <0.02 | < 0.02 | 0.20 | 0.40 | >12.5 |
| O=c1n(-c2ccc(N3CCN(c4ccc(F)cc4Cl)CC3)cc2)cnn1CC(O)(Cn1cncn1)c1ccc(F)cc1F (stereo not drawn) [Compound 58, 2-[2-(2,4-Difluorophenyl)-2-hydroxy-3-(1H-1,2,4-triazol-1-yl)propyl]-4-{4-[4-(2-chloro-4-fluorophenyl)-1-piperazinyl]phenyl}-3-(2H,4H)-1,2,4-triazolone] | 0.25 | 1.00 | 0.25 | <0.03 | 0.03 | <0.03 | 0.03 | <0.03 | 0.004 (≈ 0.00655 µM) | <0.03 | <0.03 | 2.00 |
| C[C@@H](n1ncn(-c2ccc(N3CCN(c4ccc(Cl)cc4)CC3)cc2)c1=O)[C@@](O)(Cn1cncn1)c1ccc(F)cc1F [Compound 2, 2-{[1R2S/1S2R]-2-(2,4-Difluorophenyl)-2-hydroxy-1-methyl-3-(1H-1,2,4-triazol-1-yl)propyl}-4-{4-[4-(4-chlorophenyl)-1-piperazinyl]phenyl}-3-(2H,4H)-1,2,4-triazolone] | 0.50 | 2.00 | 1.00 | <0.03 | 1.00 | <0.03 | 0.25 | <0.03 | < 0.03 | <0.03 | <0.03 | >16 |
| CCc1ccccc1N1CCN(c2ccc(-n3c(C)nn([C@H](C)[C@](O)(Cn4cncn4)c4ccc(F)cc4F)c3=O)cc2)CC1 [Compound 31, 2-{[1R2R/1S2S]-2-(2,4-Difluorophenyl)-2-hydroxy-1-methyl-3-(1H-1,2,4-triazol-1-yl)propyl}-4-{4-[4-(2-ethylphenyl)-1-piperazinyl]phenyl}-3-(2H,4H)-5-methyl-1,2,4-triazolone] | 0.50 | 0.50 | 0.12 | <0.03 | >16 | <0.03 | 0.12 | <0.03 | 0.06 (≈ 0.0976 µM) | <0.03 | <0.03 | 1.00 |
| COc1ccc(F)cc1N1CCN(c2ccc(-n3c(C)nn([C@H](C)[C@@](O)(Cn4cncn4)c4ccc(F)cc4F)c3=O)cc2)CC1 [Compound 28, 2-{[1R2S/1S2R]-2-(2,4-Difluorophenyl)-2-hydroxy-1-methyl-3-(1H-1,2,4-triazol-1-yl)propyl}-4-{4-[4-(2-methoxy-5-fluorophenyl)-1-piperazinyl]phenyl}-3-(2H,4H)-5-methyl-1,2,4-triazolone] | 4.00 | >16 | 16.0 | 0.25 | 8.00 | <0.03 | 4.00 | <0.03 | 2 (≈ 3.15 µM) | 0.25 | 1.00 | >16 |
| C[C@@H](n1ncn(-c2ccc(N3CCN(c4ccccc4)CC3)cc2)c1=O)[C@@](O)(Cn1cncn1)c1ccc(F)cc1F [Compound 6, 2-{[1R2S/1S2R]-2-(2,4-Difluorophenyl)-2-hydroxy-1-methyl-3-(1H-1,2,4-triazol-1-yl)propyl}-4-[4-(1-phenylpiperazinyl)phenyl]-3-(2H,4H)-1,2,4-triazolone] | >16 | >16 | 16.0 | 0.125 | 2.00 | <0.03 | 8.00 | <0.03 | 0.12 (≈ 0.21 µM) | 0.25 | 2.00 | >16 |
